Test [1] concerns NA of influenza A and B virus isolates. It is filed as biochemical, influenza A and B viruses.
The next test concerns influenza infection. More on the design: species or system human. The following applies: in vivo, po.

Several values for one entry are separate records, joined by “and”; a condition that tells them apart may be missing. Equal entries are not always repeated.

For `CC(=O)N[C@H]1[C@H]([C@H](O)[C@H](O)CO)OC(C(=O)O)=C[C@@H]1N=C(N)N` [zanamivir], the Susceptibility to zanamivir result in test [1] is “susceptible”.

Regarding `CCOC(=O)C1=C[C@@H](OC(CC)CC)[C@H](NC(C)=O)[C@@H](N)C1` [oseltamivir], the “duration of symptoms after commencing antiviral treatment (mean)” value with influenza infection was 33.0 ± 8.3 days and 26 ± 17.9 days.

Source of the values: article PMC3070406 (The Pediatric infectious disease journal, 2011).
